{"source": "patent US20240050465A1", "about": "“HYDROGEN WATER FOR PREVENTION OF ALCOHOLIC HEPATOPATHY” (NIHON TRIM CO., LTD., priority 2021, published 2024)", "system": "HepG2 cells", "settings": "24 hours; for Cell viability: vs 0% ethanol", "note": "Read-outs that look alike come from different tables or passages of the source.", "protocol": "A HepG2 cell line, which is human liver cancer-derived cells, was obtained from Riken Bioresource Research Center (RIKEN BRC) and cultured in DMEM containing 10% fetal bovine serum (FBS) (Sigma-Aldrich, F7524) and 1% penicillin-streptomycin (manufactured by FUJIFILM Wako Pure Chemical Corporation, trade name: 168-23191) under conditions of 37° C. and 5% CO2.", "data": [{"smiles": "CCO", "note": "[Ethanol, ethanol]", "values": [{"measurement": "Viable cell count", "setting": "HepG2, ethanol 0.25%", "value": "9.48 × 10^4 cells/well"}, {"measurement": "Cell viability", "setting": "HepG2, ethanol 0.25%", "value": 96.7, "unit": "%"}, {"measurement": "Viable cell count", "setting": "HepG2, ethanol 0.5%", "value": "9.37 × 10^4 cells/well"}, {"measurement": "Cell viability", "setting": "HepG2, ethanol 0.5%", "value": 95.6, "unit": "%"}, {"measurement": "Viable cell count", "setting": "HepG2, ethanol 1%", "value": "8.22 × 10^4 cells/well"}, {"measurement": "Cell viability", "setting": "HepG2, ethanol 1%", "value": 83.8, "unit": "%"}, {"measurement": "Viable cell count", "setting": "HepG2, ethanol 2%", "value": "6.05 × 10^4 cells/well"}, {"measurement": "Cell viability", "setting": "HepG2, ethanol 2%", "value": 61.7, "unit": "%"}, {"measurement": "Viable cell count", "setting": "HepG2, ethanol 4%", "value": "4.87 × 10^4 cells/well"}, {"measurement": "Cell viability", "setting": "HepG2, ethanol 4%", "value": 49.7, "unit": "%"}, {"measurement": "Viable cell count", "setting": "HepG2, ethanol 8%", "value": "0.35 × 10^4 cells/well"}, {"measurement": "Cell viability", "setting": "HepG2, ethanol 8%", "value": 3.6, "unit": "%"}]}]}
